# From US20060153933A1 (priority 2002, published 2006)
# Values joined by “and” are separate entries in the source; they are usually repeats but may differ in a detail not shown here. Equal entries are not always repeated. Where two headings read alike, the source gives them in different places.
# Assays:
# Assay type in all cases: in vivo
# [1] = tested on: Phytophthora infestans (PHYTIN); assay: whole plant or invertebrate; details: for pest or weed control at 1.85 ppm: read-out: % Disease Control (observed); for pest or weed control at 0.62 ppm: 0.62 ppm alone; for pest or weed control at 1.9 ppm: 1.90 ppm alone; for pest or weed control at 5.56 ppm: 5.56 ppm alone
# [2] = tested on: Plasmopara viticola (PLASVI); assay: whole plant or invertebrate; details: for pest or weed control at 1.85 ppm: 1.85 ppm alone; for pest or weed control at 5.56 ppm: 5.56 ppm alone
# [3] = tested on: Plasmopara viticola (PLASVI)
# [4] = tested on: Phytophthora infestans (PHYTIN); details: 1DC
# [5] = PHYTIN 3DP, applied alone at 1.1 ppm
# [6] = PLASVI 3DP, applied alone at 1.1 ppm
# [7] = Phytophthora infestans, 72 h, read-out: % Disease Control (observed), 3DP
# [8] = Plasmopara viticola, 72 h, read-out: % Disease Control (observed), 3DP
# [9] = Phytophthora infestans, 48 h, read-out: % Disease Control (observed), 2DP
# [10] = Phytophthora infestans, 72 h, read-out: % Disease Control (observed), 3DP, 0.60 ppm alone
# [11] = Plasmopara viticola, 24 h, read-out: % Disease Control (observed), 1DP
# [12] = Plasmopara viticola, 24 h, read-out: % Disease Control (observed), 1DP, Table 14
# [13] = Plasmopara viticola, 48 h, read-out: % Disease Control (observed), 2DP
# [14] = Plasmopara viticola, 168 h, read-out: % Disease Control (observed), 7DP
compound,measurement,setting,value
"CCNC(=O)NC(=O)/C(C#N)=N/OC [Cymoxanil, cymoxanil]",% Disease Control (Observed),[1]; [5],1.8%
same,% Disease Control (Observed),[2]; [6],17.5%
same,% Disease Control (Observed),"[3]; 1DC, 5.56 ppm alone",10.5%
same,% Disease Control (Observed),"[3]; 1DC, 16.70 ppm alone",35.1%
same,% Disease Control (Observed),[4]; 16.7 ppm alone,49.1%
"COc1ccc(C(=CC(=O)N2CCOCC2)c2ccc(Cl)cc2)cc1OC [Dimethomorph, dimethomorph]",% Disease Control (Observed),"[1]; PHYTIN 3DP, applied alone at 1.4 ppm",3.5%
same,pest or weed control at 1.85 ppm,"[1]; Phytophthora infestans, 72 h",12.3%
same,pest or weed control at 0.62 ppm,[1]; [7],0%
same,% Disease Control (Observed),"[2]; PLASVI 3DP, applied alone at 0.5 ppm",3.5%
same,% Disease Control (Observed),"[2]; PLASVI 3DP, applied alone at 1.4 ppm",22.8%
same,pest or weed control at 1.85 ppm,[2]; [8],5.3%
same,pest or weed control at 5.56 ppm,[2]; [8],63.2%
same,% Disease Control (Observed),"[3]; 1DC, 5.56 ppm alone",8.8%
same,% Disease Control (Observed),[4]; 5.56 ppm alone,0.0%
same,% Disease Control (Observed),[4]; 16.70 ppm alone,29.8%
same,% Disease Control (Observed),[4]; 50.00 ppm alone,33.3%
"CC[C@H](CS(=O)(=O)C(C)c1ccc(C#N)cc1)NC(=O)Oc1ccc(F)cc1 (stereo partly drawn) [Formula III, 4-fluorophenyl(1S)-1-({[(1R,S)-(4-cyanophenyl)ethyl]sulfonyl}methyl)-propylcarbamate]",% Disease Control (Observed),"[1]; 4DP, 0.60 ppm alone",15.8%
same,% Disease Control (Observed),"[1]; 4DP, 2.80 ppm alone",34.2%
same,% Disease Control (Observed),"[1]; 4DP, 5.60 ppm alone",21.10%
same,% Disease Control (Observed),"[1]; PHYTIN 2DP, applied alone at 0.4 ppm",5.3%
same,% Disease Control (Observed),"[1]; PHYTIN 2DP, applied alone at 1.1 ppm",15.8%
same,% Disease Control (Observed),"[1]; PHYTIN 2DP, applied alone at 5.56 ppm",12.3%
same,% Disease Control (Observed),"[1]; PHYTIN 3DP, applied alone at 0.62 ppm",3.5%
same,% Disease Control (Observed),[1]; [5],12.3%
same,% Disease Control (Observed),"[1]; PHYTIN 6DP, applied alone at 1.1 ppm",3.5%
same,% Disease Control (Observed),"[1]; PHYTIN 6DP, applied alone at 3.3 ppm",33.3%
same,pest or weed control at 0.6 ppm,"[1]; Phytophthora infestans, 24 h, read-out: % Disease Control (observed), 1DP, 0.60 ppm alone",3.5%
same,pest or weed control at 1.9 ppm,"[1]; Phytophthora infestans, 24 h, read-out: % Disease Control (observed), 1DP",78.6%
same,pest or weed control at 0.62 ppm,[1]; [9],8.8%
same,pest or weed control at 5.56 ppm,[1]; [9],12.3%
same,pest or weed control at 0.21 ppm,"[1]; Phytophthora infestans, 72 h, read-out: % Disease Control (observed), 3DP, 0.21 ppm alone",0%
same,pest or weed control at 0.6 ppm,[1]; [10],73.7%
same,pest or weed control at 0.9 ppm,"[1]; Phytophthora infestans, 72 h, read-out: % Disease Control (observed), 3DP, 0.90 ppm alone",1.8%
same,pest or weed control at 2.8 ppm,"[1]; Phytophthora infestans, 72 h, read-out: % Disease Control (observed), 3DP, 2.80 ppm alone",47.4%
same,pest or weed control at 5.56 ppm,[1]; [7],57.9%
same,pest or weed control at 5.56 ppm,"[1]; Phytophthora infestans, 72 h, read-out: % Disease Control (observed), Table 10, PHYTIN (3DP) as printed",31.6%
same,pest or weed control at 1.85 ppm,"[1]; Phytophthora infestans, 96 h",38.6%
same,% Disease Control (Observed),[1]; in vivo,26.3%
same,% Disease Control (Observed),"[2]; 1DP, 0.20 ppm alone",8.8%
same,% Disease Control (Observed),"[2]; 1DP, 0.67 ppm alone",49.1%
same,% Disease Control (Observed),"[2]; 4DP, 1.90 ppm alone",26.30%
same,% Disease Control (Observed),"[2]; PLASVI 2DP, applied alone at 0.4 ppm",8.8%
same,% Disease Control (Observed),"[2]; PLASVI 2DP, applied alone at 1.1 ppm",22.8%
same,% Disease Control (Observed),"[2]; PLASVI 2DP, applied alone at 1.85 ppm",7.0%
same,% Disease Control (Observed),"[2]; PLASVI 2DP, applied alone at 3.3 ppm",42.1%
same,% Disease Control (Observed),"[2]; PLASVI 2DP, applied alone at 5.56 ppm",19.3%
same,% Disease Control (Observed),"[2]; PLASVI 3DP, applied alone at 0.4 ppm",1.8%
same,% Disease Control (Observed),[2]; [6],12.3%
same,% Disease Control (Observed),"[2]; PLASVI 3DP, applied alone at 5.56 ppm",31.6%
same,% Disease Control (Observed),"[2]; PLASVI 6DP, applied alone at 3.3 ppm",12.3%
same,pest or weed control at 0.2 ppm,"[2]; Plasmopara viticola, 24 h, read-out: % Disease Control (observed), 1DP, 0.20 ppm alone",1.8%
same,pest or weed control at 0.21 ppm,"[2]; Plasmopara viticola, 24 h, read-out: % Disease Control (observed), 1DP, 0.21 ppm alone",14%
same,pest or weed control at 0.62 ppm,"[2]; Plasmopara viticola, 24 h, read-out: % Disease Control (observed), 1DP, 0.62 ppm alone",17.5%
same,pest or weed control at 1.85 ppm,[2]; [11],71.9%
same,pest or weed control at 5.56 ppm,[2]; [11],78.9%
same,pest or weed control at 1.85 ppm,[2]; [12],24.6%
same,pest or weed control at 5.56 ppm,[2]; [12],78.9%
same,pest or weed control at 0.62 ppm,"[2]; Plasmopara viticola, 48 h, read-out: % Disease Control (observed), 2DP, 0.62 ppm alone",1.8%
same,pest or weed control at 1.85 ppm,[2]; [13],15.8%
same,pest or weed control at 5.56 ppm,[2]; [13],56.1%
same,pest or weed control at 0.21 ppm,"[2]; Plasmopara viticola, 72 h, read-out: % Disease Control (observed), 3DP, 0.21 ppm alone",0%
same,pest or weed control at 0.3 ppm,"[2]; Plasmopara viticola, 72 h, read-out: % Disease Control (observed), 3DP, 0.30 ppm alone",0%
same,pest or weed control at 5.56 ppm,[2]; [8],40.4%
same,pest or weed control at 1.85 ppm,[2]; [14],14%
same,pest or weed control at 5.56 ppm,[2]; [14],52.6%
same,% Disease Control (Observed),"[3]; 1DC, 0.60 ppm alone",5.3%
same,% Disease Control (Observed),"[3]; 1DC, 0.90 ppm alone",0.0%
same,% Disease Control (Observed),"[3]; 1DC, 1.85 ppm alone",17.5%
same,% Disease Control (Observed),"[3]; 1DC, 2.80 ppm alone",8.8% and 16.0%
same,% Disease Control (Observed),"[3]; 1DC, 5.56 ppm alone",17.5%
same,% Disease Control (Observed),"[3]; 1DC, 16.70 ppm alone",45.6%
same,% Disease Control (Observed),[4]; 0.62 ppm alone,0.0%
same,% Disease Control (Observed),[4]; 0.90 ppm alone,0.0%
same,% Disease Control (Observed),[4]; 1.85 ppm alone,35.1%
same,% Disease Control (Observed),[4]; 1.90 ppm alone,21.1%
same,% Disease Control (Observed),[4]; 5.56 ppm alone,5.3%
same,% Disease Control (Observed),[4]; 8.30 ppm alone,8.8%
same,% Disease Control (Observed),[4]; 16.70 ppm alone,31.6%
"COCC(=O)N(c1c(C)cccc1C)[C@H](C)C(=O)OC [Mefenoxam, mefenoxam]",% Disease Control (Observed),"[1]; 1DP, 0.60 ppm alone",12.3%
same,% Disease Control (Observed),"[1]; PHYTIN 2DP, applied alone at 3.7 ppm",12.3%
same,% Disease Control (Observed),"[1]; PHYTIN 2DP, applied alone at 11.1 ppm",17.5%
same,% Disease Control (Observed),"[2]; 1DP, 0.21 ppm alone",33.3%
same,% Disease Control (Observed),"[2]; 1DP, 0.62 ppm alone",82.5%
same,% Disease Control (Observed),"[2]; PLASVI 2DP, applied alone at 11.1 ppm",38.6%
same,% Disease Control (Observed),"[2]; PLASVI 2DP, applied alone at 33.3 ppm",66.7%
same,% Disease Control (Observed),[3]; in vivo,94.7%
same,% Disease Control (Observed),[4]; 1.85 ppm alone,56.1%
"Cc1cccc(C)c1N(C(=O)CCl)C1CCOC1=O (centres unmarked) [Ofurace, ofurace]",pest or weed control at 0.6 ppm,[1]; [10],0%
same,pest or weed control at 1.9 ppm,[1]; [7],0%
same,% Disease Control (Observed),"[3]; 1DC, 0.60 ppm alone",21.1%
same,% Disease Control (Observed),[4]; 1.90 ppm alone,12.3%
same,% Disease Control (Observed),[4]; 5.60 ppm alone,61.0%
